According to PMC10816640, “Discovery of Novel Diphenyl Acrylonitrile Derivatives That Promote Adult Rats’ Hippocampal Neurogenesis” (International Journal of Molecular Sciences, 2024):
Entries after “also recorded” stand apart in the source; their conditions may differ.

Assays:
Assay type in all cases: in vivo, rat
[1] = tested on: progenitor cells in the rodents’ hippocampi; experiment: Proliferation stage of neurogenesis: BrdU labeling, rats sacrificed 24 h after BrdU; conditions: i.p. 4.0 mg/kg/day for 28 days, BrdU pulse, vs vehicle; for proliferation-promoting activity (number of BrdU+ newborn cells): eleven-week-old rats (n = 2)
Text: (§1) Previous in vitro or in vivo studies mainly focused on stimulating the proliferation effect of the small molecules. In this study, a two-step protocol was employed. First, the stimulating function of the compounds on progenitor cells in the rodents’ hippocampi was examined with using bromodeoxyuridine (BrdU) labeling. Next, the potent compounds were further screened to ascertain their ability to promote the differentiation of neural progenitor cells, as confirmed by dual labeling of BrdU and NeuN (neuronal nuclear antigen).
Adult rats were administered intraperitoneally with the prepared compounds at a dose of 4.0 mg/kg/day for a period of 28 days, followed by a BrdU pulse. After 24 h, the rats were sacrificed, and their brain tissues were isolated and cryosectioned. Immunohistochemical staining was performed and eight brain tissue slices were randomly selected for statistical analyzing.
Eight-week-old (or 10-week-old) SD male rats purchased from Peking University Health Science Center were acclimatized for one week at the Beijing Institute of Technology. All experimental protocols strictly adhered to the regulations governing the management of experimental animals and the animal ethics policy of the Beijing Institute of Technology.
(§2) The compounds were dissolved in reagent-grade soybean oil containing 10% ethanol to reach a drug concentration of 2.8 mg/mL. The rats in the experimental group received intraperitoneal injections of the compounds at a dose of 4.0 mg/kg/d for 28 consecutive days. As a control, the vehicle group was administered injections of reagent-grade soybean oil containing 10% ethanol. BrdU (Sigma-Aldrich, St. louis, MA, USA) solution, prepared in physiological saline at a concentration of 10 mg/mL, was administered to all rats on day 29. Each rat received two injections of BrdU at a dosage of 50 mg/kg, with a 2 h interval between injections. The rats were euthanized 24 h (or 28 days) after the final BrdU injection.
(§3) Two or four rats per group were anesthetized using pentobarbital sodium (70 mg/kg) and subsequently perfused with physiological saline. The brain tissue was carefully dissected and fixed in 4% paraformaldehyde at 4 °C for one week. Next, the brain tissue underwent dehydration using a phosphate-buffered saline (PBS) solution containing 20% to 30% sucrose. Finally, the brain tissue was cryosectioned into slices with a thickness of 30 μm, and eight slices were randomly selected for further analysis.
The assessment of new cell proliferation was conducted using BrdU staining. To eliminate endogenous peroxides, sections were exposed to 1% H2O2 for 30 min at RT. Cellular denaturation was achieved by treating the sections with 2 M HCl at 37 °C for 1 h, followed by rinsing in 0.1 M borate buffer (pH 8.5). Tissue sections were subjected to blocking in a solution consisting of 5% goat serum and 0.5% Triton X-100 in PBS at RT for 1–2 h. The specimens were then incubated overnight at 4 °C with a mouse primary antibody specific to BrdU (diluted at 1:500; Millipore, Billerica, MA, USA). Subsequently, the DAB kit was employed for 2 h of incubation at RT.
(§4) The data were presented as mean ± SEM (standard error of the mean) and visualized using GRAPHPAD PRISM 6 (Graphpad Software, La Jolla, CA, USA). Statistical analysis was conducted utilizing one-way analysis of variance (ANOVA) followed by a post hoc test. Subsequent to the statistical treatment, the observed discrepancies were determined to be statistically significant (p < 0.05).

[2] = tested on: newborn cells in the subgranular zone; experiment: BrdU+ newborn cells, rats sacrificed 28 days after BrdU; conditions: nine-week-old rats (n = 2), i.p. 4.0 mg/kg/day for 28 days, BrdU pulse, Figure 7A
Experimental: The study employed a rat model, wherein nine-week-old rats were administered intraperitoneally with the compound at a dose of 4.0 mg/kg/day for 28 days and then treated with a pulse of BrdU. Instead of sacrificing the rats 24 h after the BrdU injections, the rats were sacrificed after another 28 days. The brains were then isolated and cryosectioned. Eight randomly selected slices were subjected to immunohistochemical staining. This staining enabled the co-localization of the BrdU-incorporated cells with the NeuN marker, enabling the definition of the compounds that could promote the differentiation of newborn neural progenitor cells into mature functional neurons. The compounds were dissolved in reagent-grade soybean oil containing 10% ethanol to reach a drug concentration of 2.8 mg/mL. The rats in the experimental group received intraperitoneal injections of the compounds at a dose of 4.0 mg/kg/d for 28 consecutive days. As a control, the vehicle group was administered injections of reagent-grade soybean oil containing 10% ethanol. BrdU (Sigma-Aldrich, St. louis, MA, USA) solution, prepared in physiological saline at a concentration of 10 mg/mL, was administered to all rats on day 29. Each rat received two injections of BrdU at a dosage of 50 mg/kg, with a 2 h interval between injections. The rats were euthanized 24 h (or 28 days) after the final BrdU injection. Two or four rats per group were anesthetized using pentobarbital sodium (70 mg/kg) and subsequently perfused with physiological saline. The brain tissue was carefully dissected and fixed in 4% paraformaldehyde at 4 °C for one week. Next, the brain tissue underwent dehydration using a phosphate-buffered saline (PBS) solution containing 20% to 30% sucrose. Finally, the brain tissue was cryosectioned into slices with a thickness of 30 μm, and eight slices were randomly selected for further analysis. The assessment of new cell proliferation was conducted using BrdU staining. To eliminate endogenous peroxides, sections were exposed to 1% H2O2 for 30 min at RT. Cellular denaturation was achieved by treating the sections with 2 M HCl at 37 °C for 1 h, followed by rinsing in 0.1 M borate buffer (pH 8.5). Tissue sections were subjected to blocking in a solution consisting of 5% goat serum and 0.5% Triton X-100 in PBS at RT for 1–2 h. The specimens were then incubated overnight at 4 °C with a mouse primary antibody specific to BrdU (diluted at 1:500; Millipore, Billerica, MA, USA). Subsequently, the DAB kit was employed for 2 h of incubation at RT. The differentiation process of NPCs was visualized through the utilization of the NeuN/BrdU double staining technique. Tissue sections were subjected to an incubation period in a blocking buffer at RT for 1 to 2 h. The specimens were exposed to a rabbit anti-NeuN antibody (diluted at 1:500, Abcam, Cambridge, MA, UK) and a primary antibody, BrdU (diluted at 1:500), overnight at 4 °C. Afterwards, the sections were treated with anti-mouse 488 and anti-rabbit TRITC secondary antibodies for 2 h at RT. The data were presented as mean ± SEM (standard error of the mean) and visualized using GRAPHPAD PRISM 6 (Graphpad Software, La Jolla, CA, USA). Statistical analysis was conducted utilizing one-way analysis of variance (ANOVA) followed by a post hoc test. Subsequent to the statistical treatment, the observed discrepancies were determined to be statistically significant (p < 0.05).

[3] = tested on: newborn neural progenitor cells (differentiation into mature neurons); experiment: Differentiation stage of neurogenesis: NeuN/BrdU double staining, rats sacrificed 28 days after BrdU; conditions: nine-week-old rats (n = 4), i.p. 4.0 mg/kg, Figure 9, 4 mg/kg
Text: as §1
The study employed a rat model, wherein nine-week-old rats were administered intraperitoneally with the compound at a dose of 4.0 mg/kg/day for 28 days and then treated with a pulse of BrdU. Instead of sacrificing the rats 24 h after the BrdU injections, the rats were sacrificed after another 28 days. The brains were then isolated and cryosectioned. Eight randomly selected slices were subjected to immunohistochemical staining. This staining enabled the co-localization of the BrdU-incorporated cells with the NeuN marker, enabling the definition of the compounds that could promote the differentiation of newborn neural progenitor cells into mature functional neurons.
as §2, §3
The differentiation process of NPCs was visualized through the utilization of the NeuN/BrdU double staining technique. Tissue sections were subjected to an incubation period in a blocking buffer at RT for 1 to 2 h. The specimens were exposed to a rabbit anti-NeuN antibody (diluted at 1:500, Abcam, Cambridge, MA, UK) and a primary antibody, BrdU (diluted at 1:500), overnight at 4 °C. Afterwards, the sections were treated with anti-mouse 488 and anti-rabbit TRITC secondary antibodies for 2 h at RT.
as §4

What does the source list for CC(C)C(=O)Nc1ccc(/C=C/Cc2ccc3c(c2)OCO3)cc1 [23b, (E)-N-(4-(3-(benzo[d][1, 3]dioxol-5-yl)prop-1-en-1-yl)phenyl)isobutyramide]?
proliferation-promoting activity (number of BrdU+ newborn cells) ([1]; Figures 3-6, 4 mg/kg/day): significant proliferation-promoting activity; also recorded: maintained the same proliferative activity as 9b; proliferative activity over the longer 28 day period (number of BrdU+ cells) [2]: did not exhibit significant proliferative activity

CC(=O)Nc1ccc(CN(C)Cc2ccc3c(c2)OCO3)cc1 [36a, N-(4-(((benzo[d][1, 3]dioxol-5-ylmethyl)(methyl)amino)methyl)phenyl)acetamide] was tested. Which “proliferation-promoting activity (number of BrdU+ newborn cells)” value ([1]; Figures 3-6) did it give?
Its value is “abolished the activity”.

Which results are given for CC(C)C(=O)Nc1ccc(C/C=C/c2ccc3c(c2)OCO3)cc1 [18b, (E)-N-(4-(3-(benzo[d][1, 3]dioxol-5-yl)allyl)phenyl)isobutyramide]?
proliferation-promoting activity (number of BrdU+ newborn cells) ([1]; Figures 3-6, 4 mg/kg/day): significant proliferation-promoting activity; also recorded: maintained the same proliferative activity as 9b; proliferative activity over the longer 28 day period (number of BrdU+ cells) [2]: did not exhibit significant proliferative activity

Which “proliferation-promoting activity (number of BrdU+ newborn cells)” value ([1]; Figures 3-6) does the source give for CN(C)C(=O)Nc1ccc(/C=C/c2ccc3c(c2)OCO3)cc1 [8c, (E)-3-(4-(2-(benzo[d][1, 3]dioxol-5-yl)vinyl)phenyl)-1,1-dimethylurea] here?
Its value is “significant proliferation-promoting activity”.

And the “proliferative activity over the longer 28 day period (number of BrdU+ cells)” value [2]?
The value was “could promote the proliferation of progenitors”.

With CC(=O)Nc1ccc(/C(C#N)=C/c2ccc3c(c2)OCO3)cc1 [29a, (Z)-N-(4-(2-(benzo[d][1, 3]dioxol-5-yl)-1-cyanovinyl)phenyl)acetamide] as the compound, how does the “proliferation-promoting activity (number of BrdU+ positive cells)” value ([1]; nine-week-old rats (n = 4), Figure 8) read?
The value was “inactive”.

What about the “neurogenesis-promoting activity (number of NeuN+ and BrdU+ cells), differentiation stage” value [3] of the same compound?
The value was “did not show activity; also recorded: no significant neurogenesis-promoting activity”.

With COc1cc(C/C=C/c2ccc(NC(=O)C(C)C)cc2)cc(OC)c1 [24b, (E)-N-(4-(3-(3,5-dimethoxyphenyl)prop-1-en-1-yl)phenyl)isobutyramide] as the compound, how does the “proliferative activity over the longer 28 day period (number of BrdU+ cells)” value [2] read?
Its value is “did not exhibit significant proliferative activity”.

CS(=O)(=O)Nc1ccc(/C=C/Cc2ccc3c(c2)OCO3)cc1 [23i, (E)-N-(4-(3-(benzo[d][1, 3]dioxol-5-yl)prop-1-en-1-yl)phenyl)methanesulfonamide] was tested. Which “proliferation-promoting activity (number of BrdU+ newborn cells)” value ([1]; Figures 3-6) did it give?
Its value is “decreased”.

How did the “proliferation-promoting activity (number of BrdU+ newborn cells)” value ([1]; Figures 3-6) turn out when COc1cc(/C=C/c2ccc(NC(=O)C(C)C)cc2)cc(OC)c1 [9b, (E)-N-(4-(3,5-dimethoxystyryl)phenyl)isobutyramide] was run?
Its value is “significant proliferation-promoting activity”.

How did the “proliferation-promoting activity (number of BrdU+ newborn cells)” value ([1]; Figures 3-6, 4 mg/kg/day) turn out when O=C(Nc1ccc(/C=C/c2ccc3c(c2)OCO3)cc1)C1CCC1 [8d, (E)-N-(4-(2-(benzo[d][1, 3]dioxol-5-yl)vinyl)phenyl)cyclobutanecarboxamide] was run?
Its value is “significant proliferation-promoting activity; also recorded: greater propensity for enhancing activity”.

And the “proliferative activity over the longer 28 day period (number of BrdU+ cells)” value [2]?
Its value is “could promote the proliferation of progenitors”.

Which “proliferation-promoting activity (number of BrdU+ newborn cells)” value ([1]; Figures 3-6, 4 mg/kg/day) does the source give for CN(C)S(=O)(=O)Cc1ccc(/C=C/c2ccc3c(c2)OCO3)cc1 [8j, (E)-1-(4-(2-(benzo[d][1, 3]dioxol-5-yl)vinyl)phenyl)-N,N-dimethylmethanesulfonamide] here?
The value was “significant proliferation-promoting activity; also recorded: greater propensity for enhancing activity”.

Which “proliferation-promoting activity (number of BrdU+ newborn cells)” value ([1]; Figures 3-6, 4 mg/kg/day) does the source give for COc1cc(/C=C/c2ccc(NC(=O)c3ccccc3)c(F)c2)cc(OC)c1 [12f, (E)-N-(4-(3,5-dimethoxystyryl)-2-fluorophenyl)benzamide] here?
The value was “not and adversely affected the proliferative activity”.

Which “proliferation-promoting activity (number of BrdU+ newborn cells)” value ([1]; Figures 3-6, 4 mg/kg/day) does the source give for O=S(=O)(Nc1ccc(/C=C/c2ccc3c(c2)OCO3)cc1)C1CC1 [8k, (E)-N-(4-(2-(benzo[d][1, 3]dioxol-5-yl)vinyl)phenyl)cyclopropanesulfonamide] here?
Its value is “significant proliferation-promoting activity; also recorded: greater propensity for enhancing activity”.

And the “proliferative activity over the longer 28 day period (number of BrdU+ cells)” value [2]?
The value was “could promote the proliferation of progenitors”.

How did the “proliferation-promoting activity (number of BrdU+ newborn cells)” value ([1]; Figures 3-6) turn out when N#CC1(C(=O)Nc2ccc(/C=C/c3ccc4c(c3)OCO4)cc2)CC1 [8e, (E)-N-(4-(2-(benzo[d][1, 3]dioxol-5-yl)vinyl)phenyl)-1-cyanocyclopropane-1-carboxamide] was run?
Its value is “did not display significant activity”.

Which “proliferation-promoting activity (number of BrdU+ newborn cells)” value ([1]; Figures 3-6, 4 mg/kg/day) does the source give for CC(C)C(=O)NCc1ccc(/C=C/c2ccc3c(c2)OCO3)cc1 [42b, (E)-N-(4-(2-(benzo[d][1, 3]dioxol-5-yl)vinyl)benzyl)isobutyramide] here?
Its value is “not and loss of activity”.

What about the “proliferative activity over the longer 28 day period (number of BrdU+ cells)” value [2] of the same compound?
The value was “remained devoid of proliferative activity”.
